Like-named read-outs stand apart in the source and are kept apart here.
How the values were obtained:
HER3 protein = assay: half-life of the HER3 protein with cycloheximide; assay type: cell-based, human; details: BT474 cells
Experimental: The half-life of the HER3 protein in absence and presence of compound A was determined using cycloheximide, an inhibitor of protein synthesis. […] Next the levels of HER3 mRNA was examined by qPCR upon inhibition of PI3K over a time course using the approximate IC50 of compound A (6 μM).

FoxO1 and FoxO3a = assay: cytoplasmic and nuclear fractionation, FoxO immunoblot; assay type: cell-based, human; details: BT474 and MDA453; 6 μM compound A or 2 μM 5J8; 4 hours
Experimental: Nuclear (Nu) and cytoplasmic (Cy) extracts were isolated and subjected to immunoblotting with FoxO1 and FoxO3a antibodies. Loading controls for Nu: HDAC3; for Cy: RhoA (BT474) and MEK1/2 (MDA453).
Cytoplasmic and nuclear extracts were prepared using the Nuclear Extract Kit from Active Motif. Briefly, cells were plated in 100-mm dishes, treated with inhibitors at the indicated concentrations for 3-4 hours, washed with ice-cold PBS/phosphatase inhibitors, lysed in hypotonic buffer and centrifuged for 30 seconds at 14,000 rpm at 4° C. to collect the supernatant (cytoplasmic extract). The pellet (nuclear fraction) was resuspended in complete lysis buffer and centrifuged for 10 minutes at 14,000 rpm at 4° C. to collect the supernatant (nuclear fraction).

BT474 xenografts = assay: BT474 xenograft experiments; assay type: in vivo, mice; details: trastuzumab 30 mg/kg twice-a-week i.p.; lapatinib 100 mg/kg daily; compound A 100 mg/kg daily gavage; 28 days
Experimental: Tumor volumes were recorded twice-a-week. Each data point represents the mean tumor volume in mm^3±SE of 8 mice per type of treatment. CR=complete response to treatment.
Animal experiments were approved by the Institutional Animal Care Committee of Vanderbilt University Medical Center (VUMC). Mice were housed in the accredited Animal Care Facility of the VUMC. A 17β-estradiol pellet (Innovative Research of America) was injected subcutaneously (s.c.) into each 6- to 7-week-old athymic female mice (Harlan Sprague Dawley, Inc.) the day before tumor cell injection. BT474 cells (3×10^6) mixed 1:1 with Matrigel (BD Biosciences) were injected s.c. into the right flank of each mouse. Tumor diameters were measured with calipers twice-a-week and volume in mm^3 calculated with the formula: volume=width^2×length/2. […] Mice were euthanized after 28 days of treatment.
There was no significant drug-related toxicity in any of the treatment arms.

[1] = tested on: HER3, pHER3^Y1289, pAKT^S473; assay: immunohistochemistry of BT474 xenografts; assay type: in vivo, mice; details: day 28
Experimental: FIG. 18B depicts photomicrographs of immunohistochemistry sections from formalin-fixed, paraffin-embedded tumor blocks. Xenografts were harvested on day 28, 1 hour after the last dose of lapatinib and/or compound A. Antibodies used were against HER3, pHER3^Y1289, and pAKT^S473. Photographs were taken at 400× magnification (scale bar: 50 μm).
All tumor samples (collected within 1 hour of last treatment) were fixed in 10% neutral buffered formalin for 24 hours at room temperature, followed by dehydration and paraffin embedding. Immunostaining was done on 5-μm tissue sections. After deparaffinization in xylene and graded alcohols heat-induced antigen retrieval was performed in a pH 6.0 citrate buffer followed by incubation with 3% hydrogen peroxide for 20 minutes, with protein block (Dako) for 10 minutes, and finally with primary antibody overnight at 4° C. The Envision Visualization System (Dako, Carpinteria, Calif., USA) was used, followed by DAB as chromagen and counterstained with hematoxylin. Tumor sections were studied on a light microscope with an ocular magnification of 400 times. Average percentage and intensity of tumor cell staining was calculated as a histoscore (H-score) (as described in Goulding, H., et al. (1995), Hum. Pathol. 26:291-294, which is incorporated herein by reference in its entirety). An expert pathologist (MGK) scoring the sections was blinded to the type of treatment.
Using immunohistochemistry (IHC), experiments were performed to examine pharmacodynamic biomarkers of target inactivation in xenografts after 28 days of treatment. […] Therefore, experiments were performed to quantify differences in pAKT^S473 expression in both cytoplasmic and nuclear compartments in xenograft sections.

[2] = tested on: subcutaneous A-549 human lung xenografts; assay: antitumor activity in A549 xenografts; assay type: in vivo, Swiss nude mice; details: for activity rating: compound A at 30 mg/kg PO daily (text), 30 mg/kg
Description: Control groups were left untreated.
Animal body weights included the tumor weights.

[3] = Experimental: The lung cancer cell line A549 was selected for this study. […] Lung A549 cells were implanted s.c. in female Swiss nude mice using standard techniques. […] Control groups were left untreated. […]
For the evaluation of anti-tumor activity of conjugates, animals were weighed daily and tumors were measured twice weekly by caliper. A dosage producing a 20% weight loss at nadir (mean of group) or a 15% weight loss (mean of group) three successive times or drug deaths, was considered an excessively toxic dosage. Animal body weights included the tumor weights. Tumor weights were calculated using the formula mass (mg)=[length (mm)×width (mm)2]/2. The primary efficacy end points are ΔT/ΔT, percent median regression, partial and complete regressions (PR and CR), and Tumor free survivors (TFS). Changes in tumor volume for each treated (T) and control (C) were calculated for each tumor by subtracting the tumor volume on the day of first treatment (staging day) from the tumor volume on the specified observation day. The median ΔT was calculated for the treated group, and the median ΔT was calculated for the control group. Then the ratio ΔT/ΔT was calculated and expressed as a percentage: ΔT/ΔT=(delta T/delta C)×100. A dose is considered therapeutically active when ΔT/ΔT is lower than 40% and very active when ΔT/ΔT is lower than 10%. […] Percent tumor regression is defined as the percent of tumor volume decrease in the treated group at a specified observation day compared to its volume on the first day of first treatment. At a specific time point and for each animal, percent regression is calculated. The median percent regression is then calculated for the group. % regression (at t)=[volumet0−volumet/volument0]×100. Partial regression (PR): Regressions are defined as partial if the tumor volume decreases to 50% of the tumor volume at the start of treatment. Complete regression (CR): Complete regression is achieved when tumor volume=0 mm^3 (CR is considered when tumor volume cannot be recorded). TFS: Tumor free is defined as the animals with undetectable tumors at the end of the study (>100 days post last treatment).

[4] = Compound A PO 5 (160) mg/kg Q1Dx32
[5] = Compound A PO 100 (3200) mg/kg Q1Dx32
[6] = Compound A PO 100 (3200) mg/kg Q1Dx32, listed as compound A
[7] = compound A at 30 mg/kg PO daily

COc1ccc(Cl)c(Nc2nc3ccccc3nc2NS(=O)(=O)c2cccc(NC(=O)C(C)(C)N)c2)c1 [Compound A]
rate of decay of the HER3 protein (HER3 protein): not significantly altered
subcellular distribution of FoxO1 and FoxO3a (FoxO1 and FoxO3a): accumulation of both FoxO factors in the nucleus of BT474 and MDA453 cells
tumor growth, monotherapy (BT474 xenografts): significantly delayed tumor growth
nuclear pAKT^S473 by IHC [1]: statistically inhibited nuclear pAKT levels
pHER3 by IHC [1]: did not reduce membrane pHER3
Biological response at day 68 [2, 4]: Very
Median ΔT/ΔC in % day 68 [2, 4]: 5%
Biological response at day 68 [2, 5]: highly active
Median % of regression on day 68 [2, 5]: 15%
Median ΔT/ΔC in % day 68 [2, 5]: −4%
Biological response at day 68 [2, 6]: high activity
ΔT/ΔC (treated vs control tumor volume change) [2, 7]: 5%
activity rating [2]: very active
activity rating ([2]; listed as compound A): high activity
Average body weight change in % per mouse at nadir [3, 4]: −7.34%
Drug death (Day of death) [3, 4]: 0/7
day of nadir [3, 4]: 65 days
Average body weight change in % per mouse at nadir [3, 5]: −10.25%
Drug death (Day of death) [3, 5]: 0/7
day of nadir [3, 5]: 65 days
Average body weight change in % per mouse at nadir [3, 6]: −10.3%
body weight loss at nadir [3, 7]: −7.3%

— patent US9011863B2, “Combinations of kinase inhibitors for the treatment of cancer” (Exelixis, Inc., priority 2010, dated 2015)
